Laboratory results taken from US8674109B2, “Pesticidal compositions” (Dow AgroSciences, LLC., priority 2009, dated 2014).

Legend:
Assay type in all cases: in vivo
[1] = test system: corn earworm (CEW; Helicoverpa zea: Lepidoptera); assay: Insecticidal test for corn earworm, 128-well diet tray assay
Experimental: Insecticidal Test for Corn Earworm (Helicoverpa zea)
(§1) Bioassays on corn earworm (CEW; Helicoverpa zea: Lepidoptera) were conducted using a 128-well diet tray assay. Three to five second instar CEW larvae were placed in each well (3 mL) of the diet tray that had been previously filled with 1 mL of artificial diet to which 50 μg/cm^2 of the test compound (dissolved in 50 μL of 90:10 acetone-water mixture) had been applied (to each of eight wells) and then allowed to dry. Trays were covered with a clear self-adhesive cover, and held at 25° C., 14:10 light-dark for six days. Percent mortality was recorded for the larvae in each well; activity in the eight wells was then averaged.

[2] = test system: beet armyworm (BAW; Spodoptera exigua: Lepidoptera); assay: Insecticidal test for beet armyworm, 128-well diet tray assay
Experimental: Insecticidal Test for Beet Armyworm (Spodoptera exigua)
as §1, with “beet armyworm (BAW; Spodoptera exigua:” for “corn earworm (CEW; Helicoverpa zea:”, “BAW” for “CEW”

[3] = test system: green peach aphid (Myzus persicae); assay: Insecticidal test for green peach aphid in foliar spray assay on cabbage seedlings
Experimental: Insecticidal Test for Green Peach Aphid (Myzus persicae) in Foliar Spray Assay
Cabbage seedlings grown in 3-inch pots, with 2-3 small (3-5 cm) true leaves, were used as test substrate. The seedlings were infested with 20-50 green peach aphids (wingless adult and nymph) one day prior to chemical application. Four pots with individual seedlings were used for each treatment. Compounds (2 mg) were dissolved in 2 mL of acetone/methanol (1:1) solvent, forming stock solutions of 1000 ppm. The stock solutions were diluted 5× with 0.025% Tween 20 in H2O to obtain the solution at 200 ppm. A hand-held Devilbiss sprayer was used for spraying a solution to both sides of cabbage leaves until runoff. Reference plants (solvent check) were sprayed with the diluent only. Treated plants were held in a holding room for three days at approximately 25° C. and 40% relative humidity (RH) prior to grading. Evaluation was conducted by counting the number of live aphids per plant under a microscope. Insecticidal activity was measured by using Abbott's correction formula are presented in Table 2: Corrected % Control=100*(X−Y)/X
where • X=No. of live aphids on solvent check plants • Y=No. of live aphids on treated plants

SMILES	% Mortality CEW 50 μg/cm^2 [1]	% Mortality BAW 50 μg/cm^2 [2]	% Mortality GPA 200 ppm [3]
CC(C)c1ccc(C(C)OC(=O)Nc2ccc(-c3ncn(-c4ccc(OC(F)(F)F)cc4)n3)cc2)cc1 (stereo not drawn) [Compound 38]	A (50-100)	A (50-100)	B (Less than 80)
CC(OC(=O)Nc1ccc(-c2ncn(-c3ccc(OC(F)(F)F)cc3)n2)cc1)c1ccc(Br)cc1 (stereo not drawn) [Compound 39]	A (50-100)	A (50-100)	B (Less than 80)
CC(OC(=O)Nc1ccc(-c2ncn(-c3ccc(OC(F)(F)F)cc3)n2)cc1)c1ccc(C(C)(C)C)cc1 (stereo not drawn) [Compound 40]	A (50-100)	A (50-100)	B (Less than 80)
CC(OC(=O)Nc1ccc(-c2ncn(-c3ccc(OC(F)(F)F)cc3)n2)cc1)c1ccc(C(F)(F)F)nc1 (stereo not drawn) [Compound 41]	A (50-100)	A (50-100)	B (Less than 80)
CC(OC(=O)Nc1ccc(-c2ncn(-c3ccc(OC(F)(F)F)cc3)n2)cc1)c1ccc(C(F)(F)F)cc1 (stereo not drawn) [Compound 42]	A (50-100)	A (50-100)	B (Less than 80)
O=C(Nc1ccc(-c2ncn(-c3ccc(OC(F)(F)F)cc3)n2)cc1)OC(c1ccccc1)c1ccc(C(F)(F)F)cc1 (stereo not drawn) [Compound 43]	A (50-100)	A (50-100)	B (Less than 80)
C#Cc1ccc(C(C)OC(=O)Nc2ccc(-c3ncn(-c4ccc(OC(F)(F)F)cc4)n3)cc2)cc1 (stereo not drawn) [Compound 44]	A (50-100)	A (50-100)	B (Less than 80)
CC(OC(=O)Nc1ccc(-c2ncn(-c3ccc(OC(F)(F)F)cc3)n2)cc1)c1ccc(C#N)cc1 (stereo not drawn) [Compound 45]	A (50-100)	A (50-100)	B (Less than 80)
CC(OC(=O)Nc1ccc(-c2ncn(-c3ccc(OC(F)(F)F)cc3)n2)cc1)c1ccccn1 (stereo not drawn) [Compound 46]	A (50-100)	A (50-100)	B (Less than 80)
Cc1ccc(C(C)OC(=O)Nc2ccc(-c3ncn(-c4ccc(OC(F)(F)F)cc4)n3)cc2)cn1 (stereo not drawn) [Compound 47]	A (50-100)	A (50-100)	B (Less than 80)
CC(OC(=O)Nc1ccc(-c2ncn(-c3ccc(OC(F)(F)F)cc3)n2)cc1)c1ccncc1 (stereo not drawn) [Compound 48]	A (50-100)	A (50-100)	B (Less than 80)
CC(C)(OC(=O)Nc1ccc(-c2ncn(-c3ccc(OC(F)(F)F)cc3)n2)cc1)c1ccc(C(F)(F)F)cc1 [Compound 49]	A (50-100)	A (50-100)	B (Less than 80)
O=C(Nc1ccc(-c2ncn(-c3ccc(OC(F)(F)F)cc3)n2)cc1)OCc1ccc(C(F)(F)F)cc1 [Compound 50]	B (Less than 50)	B (Less than 50)	B (Less than 80)
CC(OC(=O)Nc1ccc(-c2ncn(-c3ccc(OC(F)(F)F)cc3)n2)cc1)c1ccc(C(F)(F)F)[n+]([O-])c1 (stereo not drawn) [Compound 51]	A (50-100)	A (50-100)	B (Less than 80)
C#CC(OC(=O)Nc1ccc(-c2ncn(-c3ccc(OC(F)(F)F)cc3)n2)cc1)c1ccc(Cl)nc1 (stereo not drawn) [Compound 52]	A (50-100)	A (50-100)	B (Less than 80)
C#CC(OC(=O)Nc1ccc(-c2ncn(-c3ccc(OC(F)(F)F)cc3)n2)cc1)c1ccc(C(F)(F)F)nc1 (stereo not drawn) [Compound 53]	A (50-100)	A (50-100)	B (Less than 80)
CC(OC(=O)Nc1ccc(-c2ncn(-c3ccc(OC(F)(F)F)cc3)n2)cc1)c1cnc(Cl)s1 (stereo not drawn) [Compound 54]	A (50-100)	A (50-100)	B (Less than 80)
COc1ccc(C(C)OC(=O)Nc2ccc(-c3ncn(-c4ccc(OC(F)(F)F)cc4)n3)cc2)cn1 (stereo not drawn) [Compound 55]	A (50-100)	A (50-100)	B (Less than 80)
CC(OC(=O)Nc1ccc(-c2ncn(-c3ccc(OC(F)(F)F)cc3)n2)cc1)c1ccc(Cl)nc1 (stereo not drawn) [Compound 56]	A (50-100)	A (50-100)	B (Less than 80)
CC(OC(=O)Nc1ccc(-c2ncn(-c3ccc(OC(F)(F)F)cc3)n2)cc1)c1cnc(C(F)(F)F)nc1 (stereo not drawn) [Compound 57]	A (50-100)	A (50-100)	B (Less than 80)
COCC(OC(=O)Nc1ccc(-c2ncn(-c3ccc(OC(F)(F)F)cc3)n2)cc1)c1ccccc1 (stereo not drawn) [Compound 58]	A (50-100)	A (50-100)	B (Less than 80)
CC(OC(=O)Nc1ccc(-c2ncn(-c3ccc(OC(F)(F)F)cc3)n2)cc1)c1ccccc1 (stereo not drawn) [Compound 59]	A (50-100)	A (50-100)	B (Less than 80)
CCC(OC(=O)Nc1ccc(-c2ncn(-c3ccc(OC(F)(F)F)cc3)n2)cc1)c1cccc(Br)c1 (stereo not drawn) [Compound 63]	A (50-100)	A (50-100)	B (Less than 80)
CC(OC(=O)Nc1ccc(-c2ncn(-c3ccc(OC(F)(F)F)cc3)n2)cc1)c1ccc(OC(F)(F)F)cc1 (stereo not drawn) [Compound 64]	A (50-100)	A (50-100)	B (Less than 80)
CCC(OC(=O)Nc1ccc(-c2ncn(-c3ccc(OC(F)(F)F)cc3)n2)cc1)c1cccc(Cl)c1 (stereo not drawn) [Compound 65]	A (50-100)	A (50-100)	B (Less than 80)
C#CC(OC(=O)Nc1ccc(-c2ncn(-c3ccc(OC(F)(F)F)cc3)n2)cc1)c1ccc(C(F)(F)F)cc1 (stereo not drawn) [Compound 66]	A (50-100)	A (50-100)	B (Less than 80)
CCC(OC(=O)Nc1ccc(-c2ncn(-c3ccc(OC(F)(F)F)cc3)n2)cc1)c1ccc(C(F)(F)F)cc1 (stereo not drawn) [Compound 67]	A (50-100)	A (50-100)	B (Less than 80)
CC(OC(=O)Nc1ccc(-c2ncn(-c3ccc(OC(F)(F)F)cc3)n2)cc1)c1cccc(C(F)(F)F)c1 (stereo not drawn) [Compound 68]	A (50-100)	A (50-100)	B (Less than 80)
CC(OC(=O)Nc1ccc(-c2ncn(-c3ccc(OC(F)(F)F)cc3)n2)cc1)c1ccccc1C(F)(F)F (stereo not drawn) [Compound 69]	A (50-100)	A (50-100)	B (Less than 80)
